According to article PMC8151276, “An Integrated Approach toward NanoBRET Tracers for Analysis of GPCR Ligand Engagement” (Molecules, 2021):
One block for each compound: values may come before it.

What was measured:
Assay type in all cases: binding
P2RY6 = molecular target: T1, P2RY6 (Homo sapiens, UniProt Q15077); assay: NanoBRET screen HiBiT-P2RY6 in HEK293
T1 construct: purchased Promega (in-house HiBiT-GPCR construct library, NanoBRET)
Method: (§1) Each tracer candidate was screened across the entire library of HiBiT-GPCR constructs using NanoBRET as the detection modality. As depicted in Figure 4A, the specificity of interactions was evaluated through decrease in BRET due to competitive displacement of a bound tracer by excess parental compound. Each tracer was analyzed for binding to each HiBiT-GPCR fusion in the absence and in the presence of competing parental compound. Briefly, HEK293 cells were transfected with HiBiT-GPCR constructs diluted into promoterless DNA to reduce expression and maximize translocation to the cell surface. Each tracer candidate was then screened at concentrations of 1 μM and 0.1 μM across cells expressing these fusions. Cells were treated for 1.5 h with tracer either alone or in the presence of 20 μM competing parental compound (i.e., control). BRET was measured upon addition of purified LgBiT and subsequent complementation with HiBiT genetically fused to a GPCR. The specificity of interactions was assessed through a decrease in BRET signal due to competitive displacement of the bound tracer. To further gauge the robustness of these interactions, the fold response over the control (i.e., BRETtracer/BRETcontrol) was calculated. We chose a 1.5-fold response, which translates to ≥7-fold signal over noise as the minimal threshold required to score an interaction as positive. […]. Below we highlight the screening results obtained for our exemplary fluorescent tracers based on Clozapine, Amitriptyline and AZD1283.
(§2) HiBiT-GPCR DNA constructs were diluted in 10 mM Tris pH 8 to a final concentration of 0.01 μg/μL, arrayed in 96-well plates and stored at −20 °C. For transfection, HEK293 cells were suspended in Opti-MEM (without phenol red) supplemented with 2% fetal bovine serum (Seradigm) and 100 units/mL penicillin–streptomycin (Gibco) at a final concentration of 220,000 cells/mL and dispensed into white 96-well plates at 90 μL/well. Subsequent transfections and screens were carried using an Agilent Bravo Automated Liquid Handling Platform. First, the 96-well HiBiT DNA arrays were diluted 25-fold in Opti-MEM (without serum or phenol red) to a final concentration of 0.0004 μg/μL and 20 μL of the diluted DNAs were transferred into new 96-well plates. Next, promoterless carrier DNA (1 μg/μL) was diluted 25-fold (0.04 μg/μL) and then dispensed into the diluted arrays at 20 μL/well. Following brief mixing, Viafect transfection reagent (Promega) diluted 16-fold into Opti-MEM was dispensed into the plates at 40 μL/well. After mixing by pipetting, plates were incubated for 10 min on the pipetting station deck. The DNA-transfection reagent complexes were then added to plates containing cells. To facilitate the screen, 10 μL of DNA-transfection reagent complexes were added in duplicates to the top 4 and bottom 4 rows, resulting in two identical 48-well arrays per plate. Plates with transfected cells were incubated for 18–20 h at 37 °C/5% CO2. A screen of each tracer across the entire library using two different concentrations requires duplicate plates of transfected cells. Depending on the number of tracers being screened, transfections can be scaled up using the same ratios. The next day, for each tracer, four 20× screening solutions in tracer dilution buffer (Promega) were prepared: two duplicates at final concentration of 20 μM and two duplicates at a final concentration of 2 μM. A competing unmodified compound was added to one of each duplicate at a final concentration of 400 μM. The four resulting solutions were diluted 4-fold in Opti-MEM without serum or phenol red to generate 5× solutions (5 µM and 0.5 µM tracer +/− 100 μM competing compound). To screen the library, a BioTek MultiFlo FX liquid dispenser was used to dispense 22.5 µL of tracer solution to the top 4 rows and 22.5 µL tracer + competing compound solution to the 4 bottom rows. Plates were briefly mixed on an orbital shaker and incubated for 1.5 h at room temperature. […]

EDNRA = molecular target: T2, EDNRA (Homo sapiens, UniProt P25101); assay: NanoBRET screen HiBiT-EDNRA in HEK293
T2 construct: purchased Promega (in-house HiBiT-GPCR construct library, NanoBRET)
T2 sequence (P25101 21-427): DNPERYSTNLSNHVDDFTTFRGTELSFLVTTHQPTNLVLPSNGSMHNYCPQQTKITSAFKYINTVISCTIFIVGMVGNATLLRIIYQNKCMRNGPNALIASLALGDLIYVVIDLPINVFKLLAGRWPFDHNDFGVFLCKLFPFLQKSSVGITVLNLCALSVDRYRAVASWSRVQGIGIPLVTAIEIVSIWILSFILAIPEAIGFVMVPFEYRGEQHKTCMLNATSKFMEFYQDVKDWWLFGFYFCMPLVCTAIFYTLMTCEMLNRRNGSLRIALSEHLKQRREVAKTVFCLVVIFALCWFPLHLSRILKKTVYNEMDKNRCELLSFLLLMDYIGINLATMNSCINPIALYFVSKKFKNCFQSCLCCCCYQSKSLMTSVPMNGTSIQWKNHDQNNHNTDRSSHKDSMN
Method: as §1, §2

FSHR = molecular target: T3, FSHR (Homo sapiens, UniProt P23945); assay: NanoBRET screen HiBiT-FSHR in HEK293
T3 construct: purchased Promega (in-house HiBiT-GPCR construct library, NanoBRET)
T3 sequence (P23945 18-695): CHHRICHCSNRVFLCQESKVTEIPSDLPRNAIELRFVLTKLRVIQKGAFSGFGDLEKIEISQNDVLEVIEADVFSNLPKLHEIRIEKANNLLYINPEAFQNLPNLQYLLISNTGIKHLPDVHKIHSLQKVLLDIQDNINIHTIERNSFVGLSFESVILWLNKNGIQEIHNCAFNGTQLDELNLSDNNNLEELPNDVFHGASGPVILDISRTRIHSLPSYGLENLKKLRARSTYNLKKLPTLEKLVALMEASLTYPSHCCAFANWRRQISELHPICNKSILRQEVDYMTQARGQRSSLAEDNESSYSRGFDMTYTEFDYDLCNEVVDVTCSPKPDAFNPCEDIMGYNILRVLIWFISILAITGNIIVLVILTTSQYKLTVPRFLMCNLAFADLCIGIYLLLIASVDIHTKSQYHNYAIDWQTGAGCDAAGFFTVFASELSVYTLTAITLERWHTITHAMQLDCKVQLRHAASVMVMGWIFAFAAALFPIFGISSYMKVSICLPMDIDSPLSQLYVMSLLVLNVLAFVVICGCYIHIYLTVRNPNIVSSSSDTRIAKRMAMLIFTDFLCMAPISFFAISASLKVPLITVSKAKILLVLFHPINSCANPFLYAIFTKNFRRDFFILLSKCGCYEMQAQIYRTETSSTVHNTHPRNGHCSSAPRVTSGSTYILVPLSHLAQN
Method: as §1, §2

[1] = tracer at 0.1μM, listed as amitriptyline-b-2-NB590
[2] = tracer at 1μM, listed as amitriptyline-b-2-NB590

T1 sequence (Q15077 whole entry): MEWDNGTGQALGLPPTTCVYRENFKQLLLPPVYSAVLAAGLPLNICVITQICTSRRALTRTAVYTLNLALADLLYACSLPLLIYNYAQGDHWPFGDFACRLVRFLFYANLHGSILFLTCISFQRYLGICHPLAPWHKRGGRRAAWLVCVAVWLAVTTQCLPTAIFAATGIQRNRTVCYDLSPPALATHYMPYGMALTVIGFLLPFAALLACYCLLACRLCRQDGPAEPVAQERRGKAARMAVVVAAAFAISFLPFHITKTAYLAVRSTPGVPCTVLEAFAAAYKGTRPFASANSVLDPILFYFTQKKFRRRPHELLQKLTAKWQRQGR

SMILES: CC(C)N(CC[C@H](c1ccccc1)c1cc(CCNC(=O)CCOCCOCCOCCOCCNC(=O)CCc2ccc3n2[B-](F)(F)[N+]2=C(c4ccc[nH]4)C=CC2=C3)ccc1O)C(C)C [Tolterodine-2-NB590]
- NanoBRET Fold Response (P2RY6; P2RY6, tracer 0.1μM): 1.06
- NanoBRET Fold Response (P2RY6; P2RY6, tracer 1μM): 0.98
- NanoBRET Fold Response (EDNRA; EDNRA, tracer 0.1μM): 0.94
- NanoBRET Fold Response (EDNRA; EDNRA, tracer 1μM): 1.01
- NanoBRET Fold Response (FSHR; FSHR, tracer 0.1μM): 0.78
- NanoBRET Fold Response (FSHR; FSHR, tracer 1μM): 1.08

- NanoBRET Fold Response (P2RY6; P2RY6, tracer 0.1μM): 1.12
- NanoBRET Fold Response (P2RY6; P2RY6, tracer 1μM): 0.86
- NanoBRET Fold Response (EDNRA; EDNRA, tracer 0.1μM): 1.03
- NanoBRET Fold Response (EDNRA; EDNRA, tracer 1μM): 1.04
- NanoBRET Fold Response (FSHR; FSHR, tracer 0.1μM): 0.99
- NanoBRET Fold Response (FSHR; FSHR, tracer 1μM): 1.06
SMILES: N#CN=C(NCCCOc1cccc(CN2CCCCC2)c1)NCCNC(=O)CCOCCOCCOCCOCCNC(=O)CCc1ccc2n1[B-](F)(F)[N+]1=C(c3ccc[nH]3)C=CC1=C2 [Aminopotentidine-2-NB590]

- NanoBRET Fold Response (P2RY6; P2RY6, 0.1μM): 1.18
- NanoBRET Fold Response (P2RY6; P2RY6, 1μM): 1.04
- NanoBRET Fold Response (EDNRA; EDNRA, 0.1μM): 1.01
- NanoBRET Fold Response (EDNRA; EDNRA, 1μM): 1.02
- NanoBRET Fold Response (FSHR; FSHR, 0.1μM): 0.99
- NanoBRET Fold Response (FSHR; FSHR, 1μM): 1.03
SMILES: CCOC(=O)c1cc(C#N)c(N2CCC(C(=O)NS(=O)(=O)Cc3ccccc3/C=C/C(=O)NCCNC(=O)CCc3ccc4n3[B-](F)(F)[N+]3=C(c5ccc[nH]5)C=CC3=C4)CC2)nc1C [AZD1283-1-NB590]

SMILES: CN(C)CCC=C1c2ccccc2CCc2ccc(C(=O)NCCNC(=O)CCOCCOCCOCCOCCNC(=O)CCc3ccc4n3[B-](F)(F)[N+]3=C(c5ccc[nH]5)C=CC3=C4)cc21 [Amitriptyline-b-2-NB590]
- NanoBRET Fold Response (P2RY6; [1]): 1.04
- NanoBRET Fold Response (P2RY6; [2]): 0.95
- NanoBRET Fold Response (EDNRA; [1]): 1.09
- NanoBRET Fold Response (EDNRA; [2]): 0.94
- NanoBRET Fold Response (FSHR; [1]): 1.13
- NanoBRET Fold Response (FSHR; [2]): 0.96

SMILES: CN(C)CCC=C1c2ccccc2CCc2ccc(C(=O)NCCNC(=O)CCOCCOCCOCCOCCNC(=O)CCc3ccc4n3[B-](F)(F)[N+]3=C(c5ccc[nH]5)C=CC3=C4)cc21 [Amitriptyline-a-2-NB590]
- NanoBRET Fold Response (P2RY6; tracer at 0.1μM): 1.00
- NanoBRET Fold Response (P2RY6; tracer at 1μM): 0.94
- NanoBRET Fold Response (EDNRA; tracer at 0.1μM): 0.99
- NanoBRET Fold Response (EDNRA; tracer at 1μM): 0.99
- NanoBRET Fold Response (FSHR; tracer at 0.1μM): 1.02
- NanoBRET Fold Response (FSHR; tracer at 1μM): 1.06

SMILES: O=C(CCc1ccc2n1[B-](F)(F)[N+]1=C(c3ccc[nH]3)C=CC1=C2)NCCOCCOCCNC(=O)OCCOCCN1CCN(C2=Nc3ccccc3Sc3ccccc32)CC1 [Quetiapine-a-2-NB590]
- NanoBRET Fold Response (P2RY6; P2RY6, tracer 0.1μM): 1.30
- NanoBRET Fold Response (P2RY6; P2RY6, tracer 1μM): 0.96
- NanoBRET Fold Response (EDNRA; EDNRA, tracer 0.1μM): 1.03
- NanoBRET Fold Response (EDNRA; EDNRA, tracer 1μM): 1.04
- NanoBRET Fold Response (FSHR; FSHR, tracer 0.1μM): 0.89
- NanoBRET Fold Response (FSHR; FSHR, tracer 1μM): 1.07

SMILES: Cc1cc2c(s1)Nc1ccccc1N=C2N1CCN(CCCNC(=O)CCOCCOCCOCCOCCNC(=O)CCc2ccc3n2[B-](F)(F)[N+]2=C(c4ccc[nH]4)C=CC2=C3)CC1 [Olanzapine-a-2-NB590]
- NanoBRET Fold Response (P2RY6; P2RY6, tracer 0.1μM): 1.31
- NanoBRET Fold Response (P2RY6; P2RY6, tracer 1μM): 0.95
- NanoBRET Fold Response (EDNRA; EDNRA, tracer 0.1μM): 1.02
- NanoBRET Fold Response (EDNRA; EDNRA, tracer 1μM): 1.10
- NanoBRET Fold Response (FSHR; FSHR, tracer 0.1μM): 1.10
- NanoBRET Fold Response (FSHR; FSHR, tracer 1μM): 0.99

SMILES: CN1CCN(C2=Nc3cc(Cl)ccc3Nc3ccc(CNC(=O)CCOCCOCCOCCOCCNC(=O)CCc4ccc5n4[B-](F)(F)[N+]4=C(c6ccc[nH]6)C=CC4=C5)cc32)CC1 [Clozapine-b-2-NB590]
- NanoBRET Fold Response (P2RY6; P2RY6, 0.1μM tracer): 1.04
- NanoBRET Fold Response (P2RY6; P2RY6, 1μM tracer): 0.98
- NanoBRET Fold Response (EDNRA; EDNRA, 0.1μM tracer): 0.99
- NanoBRET Fold Response (EDNRA; EDNRA, 1μM tracer): 1.03
- NanoBRET Fold Response (FSHR; FSHR, 0.1μM tracer): 1.01
- NanoBRET Fold Response (FSHR; FSHR, 1μM tracer): 1.05

- NanoBRET Fold Response (P2RY6; 0.1μM tracer): 1.01
- NanoBRET Fold Response (P2RY6; 1μM tracer): 1.01
- NanoBRET Fold Response (EDNRA; 0.1μM tracer): 0.91
- NanoBRET Fold Response (EDNRA; 1μM tracer): 0.91
- NanoBRET Fold Response (FSHR; 0.1μM tracer): 1.08
- NanoBRET Fold Response (FSHR; 1μM tracer): 1.08
SMILES: COc1ccc2c(n1)c(CCNC(C)=O)cn2CCNC(=O)CCc1ccc2n1[B-](F)(F)[N+]1=C(c3ccc[nH]3)C=CC1=C2 [Azamelatonin-1-NB590]

SMILES: O=C(CCc1ccc2n1[B-](F)(F)[N+]1=C(c3ccc[nH]3)C=CC1=C2)NCc1ccc(C(=O)NCCOCCOCCNCC(O)COc2cccc3ccccc23)cc1 (stereo not drawn) [Propranolol-3-NB590]
- NanoBRET Fold Response (P2RY6; P2RY6, 0.1μM): 1.07
- NanoBRET Fold Response (P2RY6; P2RY6, 1μM): 0.96
- NanoBRET Fold Response (EDNRA; EDNRA, 0.1μM): 0.97
- NanoBRET Fold Response (EDNRA; EDNRA, 1μM): 1.03
- NanoBRET Fold Response (FSHR; FSHR, 0.1μM): 0.98
- NanoBRET Fold Response (FSHR; FSHR, 1μM): 1.04

- NanoBRET Fold Response (P2RY6; P2RY6, 0.1μM tracer): 1.02
- NanoBRET Fold Response (P2RY6; P2RY6, 1μM tracer): 0.92
- NanoBRET Fold Response (EDNRA; EDNRA, 0.1μM tracer): 1.04
- NanoBRET Fold Response (EDNRA; EDNRA, 1μM tracer): 0.90
- NanoBRET Fold Response (FSHR; FSHR, 0.1μM tracer): 0.99
- NanoBRET Fold Response (FSHR; FSHR, 1μM tracer): 1.32
SMILES: O=C(CCOCCOCCOCCOCCNC(=O)CCc1ccc2n1[B-](F)(F)[N+]1=C(c3ccc[nH]3)C=CC1=C2)NCCCN1CCN(C2=Nc3cc(Cl)ccc3Nc3ccccc32)CC1 [Clozapine-a-2-NB590]
